# Data from US10087242B2 (INSTITUT PASTEUR, priority 2007, dated 2018).
# Assays:
# Assay type in all cases: binding, mouse
# mIgG C7-37 = assay: inhibition ELISA: oligosaccharide inhibits fixation of mIgG C7-37 on LPS 3a; conditions: concentration of oligosaccharide giving 50% inhibition of fixation of the mAb on LPS 3a (S. flexneri 3a)
# Protocol: (§1) The oligosaccharide determinants recognized by the four mAbs obtained were characterized by measuring, by inhibition ELISA, the interaction of the various oligosaccharides synthesized with these mAbs.
# (§2) 1) First, a standard curve OD=f(concentration of the mAb) was established for each antibody.
# (§3) For this, purified LPS from S. flexneri 3a was fixed in the wells of ELISA plates (96-well plate), at a concentration of 25 μg/ml in a carbonate buffer pH 9.6, at 4° C., overnight.
# (§4) After washing the wells with a solution of PBS/ Tween 20 (0.05%) 1% and a stage of saturation with PBS/BSA 1% for 30 minutes at 4° C., various concentrations of each mAb were incubated for 30 minutes at 4° C. After a washing stage, a secondary antibody coupled to alkaline phosphatase and specific to the mouse IgGs or IgMs was added at a dilution of 1/5000 (Sigma-Aldrich) for 1 h at 37° C. After washing, the enzymatic reaction was carried out with the specific substrate of alkaline phosphatase (12 mg of p-nitrophenylphosphate in 1.2 ml of Tris-HCl buffer 1M (pH 8.8) and 10.8 ml of 5M NaCl). Once the color reaction had developed, the plates were read at 405 nm (Dynatech MR 4000 plate reader). The standard curve OD =f(Ab concentration) was refined with the equation Y=aX2+bX+c, where Y corresponds to the OD and X to the antibody concentration. A correlation factor (r2) of 0.99 was generally obtained.
# (§5) 2) The concentration of oligosaccharide capable of inhibiting 50% of the fixation of the mAb on LPS 3a was then determined as follows.
# (§6) Each mAb was used at a given concentration, defined as the first concentration tested giving a maximum OD on the standard curve (the first point at the start of the plateau of the curve). Various concentrations of each of the oligosaccharides to be tested were then incubated separately with the mAb at constant concentration, overnight at 4° C., in 1% PBS-BSA buffer. Measurement of the free antibody concentration was carried out as stated above, after incubation of the mAb/oligosaccharide mixtures at 4° C. for 30 minutes on plates covered with LPS 3a and using the standard curve obtained in parallel on the same plate. For each mAb and each oligosaccharide, a value called IC50 was then calculated, corresponding to the concentration of oligosaccharide permitting 50% inhibition of the fixation of the mAb on LPS 3a.
# mIgG G7-12 = assay: inhibition ELISA: oligosaccharide inhibits fixation of mIgG G7-12 on LPS 3a; conditions: concentration of oligosaccharide giving 50% inhibition of fixation of the mAb on LPS 3a (S. flexneri 3a)
# Protocol: as §1, §2, §3, §4, §5, §6
# IgM (G 19-2) = assay: inhibition ELISA: oligosaccharide inhibits fixation of IgM G19-2 on LPS 3a; conditions: for IC50: concentration of oligosaccharide giving 50% inhibition of fixation of the mAb on LPS 3a (S. flexneri 3a), inhibition ELISA; for recognition by the mIgM antibody (and by the mIgGs): summary in words of tables 1 and 2, interaction weaker than with the mIgGs
# Protocol: Protocol 2) Ten Balb/C mice and four BP2 mice were immunized by i.p. injection with virulent live bacteria of the strain S. flexneri 3a, every three weeks, using 2×10^6 bacteria for the first 2 immunizations and 5×10^6 for the next 4. As the anti-LPS 3a antibody response was too weak for performing cellular fusion, an additional series of 4 injections was carried out. Two mAbs of type IgM, G19-2 and L18-9, were obtained.
# as §1, §2, §3, §4, §5, §6
SMILES,IC50 (mIgG C7-37),IC50 (mIgG G7-12),IC50 (IgM (G 19-2)),recognition by the mIgM antibody (and by the mIgGs) (IgM (G 19-2))
CCCO[C@@H]1OC(C)[C@H](O)[C@H](O[C@H]2O[C@@H](CO)[C@@H](O)C(O)C2O)C1O[C@@H]1OC(CO)[C@@H](O)C(O)[C@@H]1NC(C)=O (stereo partly drawn),> 5000 µM,> 2500 µM,> 2500 µM,
"CCCO[C@@H]1OC(C)[C@H](O)C(O)C1O[C@@H]1OC(C)[C@H](O)C(O[C@H]2OC(CO)[C@@H](O)C(O)C2O)C1O[C@@H]1OC(CO)[C@@H](O)C(O[C@@H]2OC(C)[C@H](O)C(O[C@@H]3OC(C)[C@H](O)C(O)C3O)C2OC(C)=O)C1NC(C)=O (stereo partly drawn) [BC(2-OAc)D(E)AB-OPr, Propyl α-L-rhamnopyranosyl-(1→3)-(2-O-acetyl-α-L-rhamnopyranosyl)-(1→3)-(2-acetamido-2-deoxy-β-D-glucopyranosyl)-(1→2)-[α-D-glucopyranosyl-(1→3)]-α-L-rhamnopyranosyl-(1→2)-α-L-rhamnopyranoside]",230 µM,205 µM,2200 µM,recognized
"CCCO[C@@H]1OC(C)[C@H](O)C(O[C@H]2OC(CO)[C@@H](O)C(O)C2O)C1O[C@@H]1OC(CO)[C@@H](O)C(O[C@@H]2OC(C)[C@H](O)C(O[C@@H]3OC(C)[C@H](O)C(O)C3O)C2O)C1NC(C)=O (stereo partly drawn) [BCDEA-Opr, Propyl α-L-rhamnopyranosyl-(1→3)-α-L-rhamnopyranosyl-(1→3)-(2-acetamido-2-deoxy-β-D-glucopyranosyl)-(1→2)-[α-D-glucopyranosyl-(1→3)]-α-L-rhamnopyranoside]",> 1000 µM,> 2500 µM,> 2500 µM,
"CCCO[C@@H]1OC(C)[C@H](O)C(O[C@H]2OC(CO)[C@@H](O)C(O)C2O)C1O[C@@H]1OC(CO)[C@@H](O)C(O[C@@H]2OC(C)[C@H](O)C(O[C@@H]3OC(C)[C@H](O)C(O)C3O)C2OC(C)=O)C1NC(C)=O (stereo partly drawn) [BCDEA-Opr-Oac, Propyl α-L-rhamnopyranosyl-(1→3)-(2-O-acetyl-α-L-rhamnopyranosyl)-(1→3)-(2-acetamido-2-deoxy-β-D-glucopyranosyl)-(1→2)-[α-D-glucopyranosyl-(1→3)]-α-L-rhamnopyranoside]",195 µM,175 µM,1980 µM,recognized
CCCO[C@@H]1OC(C)[C@H](O)C(O)C1O[C@@H]1OC(C)[C@H](O)C(O[C@H]2OC(CO)[C@@H](O)C(O)C2O)C1O[C@@H]1OC(CO)[C@@H](O)C(O[C@@H]2OC(C)[C@H](O)C(O[C@@H]3OC(C)[C@H](O)C(O)C3O)C2O)C1NC(C)=O (stereo partly drawn) [BCDEAB-Opr],> 5000 µM,> 2500 µM,> 2500 µM,
"CCCO[C@@H]1OC(C)[C@H](O)C(O)C1O[C@@H]1OC(C)[C@H](O)C(O[C@H]2OC(CO)[C@@H](O)C(O)C2O)C1O[C@@H]1OC(CO)[C@@H](O)C(O[C@@H]2OC(C)[C@H](O)C(O)C2OC(C)=O)C1NC(C)=O (stereo partly drawn) [C(2,3-OAc)D(E)AB-OPr, Propyl (2-O-acetyl-α-L-rhamnopyranosyl)-(1→3)-(2-acetamido-2-deoxy-β-D-glucopyranosyl)-(1→2)-[α-D-glucopyranosyl-(1→3)]-α-L-rhamnopyranosyl-(1→2)-α-L-rhamnoyranoside]",> 5000 µM,> 2500 µM,> 2500 µM,
"CCCO[C@@H]1O[C@@H](C)[C@H](O)[C@@H](O)[C@H]1O[C@@H]1O[C@@H](C)[C@H](O)[C@@H](O[C@H]2O[C@H](CO)[C@@H](O)[C@H](O)[C@H]2O)[C@H]1O[C@@H]1O[C@H](CO)[C@@H](O)[C@H](O)[C@H]1NC(C)=O [DEAB-OPr, Propyl 2-acetamido-2-deoxy-β-D-glucopyranosyl-(1→2)-[α-D-glucopyranosyl-(1→3)]-α-L-rhamnopyranosyl-(1→2)-α-L-rhamnopyranoside]",> 5000 µM,> 2500 µM,> 2500 µM,
"CCCO[C@@H]1O[C@@H](C)[C@H](O)[C@@H](O[C@@H]2O[C@@H](C)[C@H](O)[C@@H](O)[C@H]2O[C@@H]2O[C@@H](C)[C@H](O)[C@@H](O[C@H]3O[C@H](CO)[C@@H](O)[C@H](O)[C@H]3O)[C@H]2O[C@@H]2O[C@H](CO)[C@@H](O)[C@H](O)[C@H]2NC(C)=O)[C@H]1OC(C)=O [DEABC(2-OAc)-OPr, Propyl (2-acetamido-2-deoxy-β-D-glucopyranosyl)-(1→2)-[α-D-glucopyranosyl-(1→3)]-α-L-rhamnopyranosyl-(1→2)-α-L-rhamnopyranosyl-(1→3)-2-O-acetyl-α-rhamnopyranoside]",,> 2500 µM,> 2500 µM,
"CCCO[C@@H]1O[C@@H](C)[C@H](O)[C@@H](O[C@@H]2O[C@@H](C)[C@H](O)[C@@H](O)[C@H]2O[C@@H]2O[C@@H](C)[C@H](O)[C@@H](O[C@H]3O[C@H](CO)[C@@H](O)[C@H](O)[C@H]3O)[C@H]2O[C@@H]2O[C@H](CO)[C@@H](O)[C@H](O)[C@H]2NC(C)=O)[C@H]1O [DEABC)-OPr, Propyl (2-acetamido-2-deoxy-β-D-glucopyranosyl)-(1→2)-[α-D-glucopyranosyl-(1→3)]-α-L-rhamnopyranosyl-(1→2)-α-L-rhamnopyranosyl-(1→3)-α-L-rhamnopyranoside]",> 5000 µM,> 2500 µM,> 2500 µM,
"CCCO[C@@H]1O[C@@H](C)[C@H](O)[C@@H](O[C@H]2O[C@H](CO)[C@@H](O)[C@H](O)[C@H]2O)[C@H]1O [EA-OPr, Propyl α-D-glucopyranosyl- (1→3)-α-L-rhamnopyranoside]",> 5000 µM,> 2500 µM,> 2500 µM,
"CCCO[C@@H]1O[C@@H](C)[C@H](O)[C@@H](O)[C@H]1O[C@@H]1O[C@@H](C)[C@H](O)[C@@H](O[C@H]2O[C@H](CO)[C@@H](O)[C@H](O)[C@H]2O)[C@H]1O [EAB-OPr, Propyl α-D-glucopyranosyl-(1→3)-α-L-rhamnopyranosyl-(1→2)-α-L-rhamnopyranoside]",> 5000 µM,> 2500 µM,> 2500 µM,
"CCCO[C@@H]1O[C@@H](C)[C@H](O)[C@@H](O[C@@H]2O[C@@H](C)[C@H](O)[C@@H](O)[C@H]2O[C@@H]2O[C@@H](C)[C@H](O)[C@@H](O[C@H]3O[C@H](CO)[C@@H](O)[C@H](O)[C@H]3O)[C@H]2O)[C@H]1OC(C)=O [EABC(2-OAc)-OPr, Propyl α-D-glucopyranosyl-(1→3)-α-L-rhamnopyranosyl-(1→2)-α-L-rhamnopyranosyl-(1→3)-2-O-acetyl-α-L-rhamnopyranoside]",410 µM,450 µM,1430 µM,recognized
"CCCO[C@@H]1OC(CO)[C@@H](O)C(O[C@@H]2OC(C)[C@H](O)C(O[C@@H]3OC(C)[C@H](O)C(O)C3O[C@@H]3OC(C)[C@H](O)C(O[C@H]4OC(CO)[C@@H](O)C(O)C4O)C3O)C2OC(C)=O)C1NC(C)=O (stereo partly drawn) [EABC(2-OAc)D-OPr, Propyl α-D-glucopyranosyl-(1→3)-α-L-rhamnopyranosyl-(1→2)-α-L-rhamnopyranosyl-(1→3)-(2-O-acetyl-α-L-rhamnopyranosyl)-(1→3)-2-acetamido-2-deoxy-β-D-glucopyranoside]",280 µM,315 µM,1280 µM,recognized
"CCCO[C@@H]1O[C@@H](C)[C@H](O)[C@@H](O[C@@H]2O[C@@H](C)[C@H](O)[C@@H](O)[C@H]2O[C@@H]2O[C@@H](C)[C@H](O)[C@@H](O[C@H]3O[C@H](CO)[C@@H](O)[C@H](O)[C@H]3O)[C@H]2O)[C@H]1O [EABC-Opr, Propyl α-D-glucopyranosyl-(1→3)-α-L-rhamnopyranosyl-(1→2)-α-L-rhamnopyranosyl-(1→3)-α-L-rhamnopyranoside]",> 5000 µM,> 2500 µM,> 2500 µM,
